In US20110082130A1 (LIGAND PHARMACEUTICALS, INC., priority 2006, published 2011):

Target: T1, chimeric human H3 receptor (Homo sapiens, UniProt Q9Y5N1)
T1 construct: made in house; host or cells: Sf9 insect cells (baculovirus); P2 membrane preparation
Assay: Chimeric human H3 receptor screening GTP binding assay (inhibition of histamine-stimulated GTP-gamma35S binding, Example 8)
Type: biochemical
Conditions: Table II "Ki", symbol †, 4 μM of the compound, 1 μM histamine, read-out: percent inhibition of the signal obtained with 1 μM histamine
Summary of the method: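 Values are percent inhibition of 1 μM histamine-stimulated GTP-gamma35S […] binding, with non-specific binding (10 μM GTP-gammaS) subtracted, by compounds tested at 4 μM. Membranes (35 μg) from Sf9 cells expressing chimeric human H3 with G-protein subunits were used in Tris pH 7.4 buffer with 10 μM GDP. Incubation lasted 60 min at room temperature, followed by filtration and scintillation counting.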

T1 sequence (Q9Y5N1 with tags, fused parts or gaps): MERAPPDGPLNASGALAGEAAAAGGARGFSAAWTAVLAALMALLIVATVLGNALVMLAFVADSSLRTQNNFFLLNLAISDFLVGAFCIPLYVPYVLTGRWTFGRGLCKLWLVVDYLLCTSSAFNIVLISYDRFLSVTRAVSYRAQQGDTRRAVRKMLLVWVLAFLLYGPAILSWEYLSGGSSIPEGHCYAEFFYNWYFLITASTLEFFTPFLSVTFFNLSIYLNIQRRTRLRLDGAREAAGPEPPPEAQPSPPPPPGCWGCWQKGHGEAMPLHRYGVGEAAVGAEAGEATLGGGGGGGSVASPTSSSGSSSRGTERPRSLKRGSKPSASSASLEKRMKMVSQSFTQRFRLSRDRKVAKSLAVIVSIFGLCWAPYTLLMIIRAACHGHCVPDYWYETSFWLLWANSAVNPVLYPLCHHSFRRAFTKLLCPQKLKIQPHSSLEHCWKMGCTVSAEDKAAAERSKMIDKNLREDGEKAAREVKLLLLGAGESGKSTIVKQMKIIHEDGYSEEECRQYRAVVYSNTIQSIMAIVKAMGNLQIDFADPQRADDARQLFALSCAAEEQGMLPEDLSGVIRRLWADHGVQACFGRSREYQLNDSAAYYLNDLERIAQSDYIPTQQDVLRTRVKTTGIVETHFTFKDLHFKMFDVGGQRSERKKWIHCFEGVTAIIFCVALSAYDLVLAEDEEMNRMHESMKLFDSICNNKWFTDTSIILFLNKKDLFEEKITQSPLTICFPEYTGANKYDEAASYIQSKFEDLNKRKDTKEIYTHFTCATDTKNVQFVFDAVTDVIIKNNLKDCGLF

Row | inhibition at 4 µM [%] | Structure (SMILES)
1 | ≥ 90 | CC(C)Oc1cccc(-c2ccc3c(c2)CCN(CC(=O)N2CCN(C4CCCC4)CC2)C3)c1 [Compound 514, 2-[2-(4-cyclopentylpiperazin-1-yl)-2-oxoethyl]-6-(3-isopropoxyphenyl)-1,2,3,4-tetrahydroisoquinoline]
2 | ≥ 90 | COc1ccc(-c2ccc3c(c2)CCN(CC(=O)N2CCN(C4CCCCC4)CC2)C3)cc1C [Compound 542, 2-[2-(4-cyclohexylpiperazin-1-yl)-2-oxoethyl]-6-(4-methoxy-3-methylphenyl)-1,2,3,4-tetrahydroisoquinoline]
3 | ≥ 90 | COc1ccc(-c2ccc3c(c2)CCN(CC(=O)N2CCN(C4CCC4)CC2)C3)c(C)c1 [Compound 548, 2-[2-(4-cyclobutylpiperazin-1-yl)-2-oxoethyl]-6-(4-methoxy-2-methylphenyl)-1,2,3,4-tetrahydroisoquinoline]
4 | ≥ 90 | COc1ccc(-c2ccc3c(c2)CCN(CC(=O)N2CCN(C4CCCC4)CC2)C3)c(C)c1 [Compound 549, 2-[2-(4-cyclopentylpiperazin-1-yl)-2-oxoethyl]-6-(4-methoxy-2-methylphenyl)-1,2,3,4-tetrahydroisoquinoline]
5 | ≥ 90 | COc1ccc(-c2ccc3c(c2)CCN(CC(=O)N2CCN(C4CCCCC4)CC2)C3)c(C)c1 [Compound 550, 2-[2-(4-cyclohexylpiperazin-1-yl)-2-oxoethyl]-6-(4-methoxy-2-methylphenyl)-1,2,3,4-tetrahydroisoquinoline]
6 | ≥ 90 | COc1ccccc1-c1ccc2c(c1)CCN(CC(=O)N1CCN(C3CCC3)CC1)C2 [Compound 551, 2-[2-(4-cyclobutylpiperazin-1-yl)-2-oxoethyl]-6-(2-methoxyphenyl)-1,2,3,4-tetrahydroisoquinoline]
7 | ≥ 90 | COc1ccccc1-c1ccc2c(c1)CCN(CC(=O)N1CCN(C3CCCC3)CC1)C2 [Compound 552, 2-[2-(4-cyclopentylpiperazin-1-yl)-2-oxoethyl]-6-(2-methoxyphenyl)-1,2,3,4-tetrahydroisoquinoline]
8 | ≥ 90 | COc1ccccc1-c1ccc2c(c1)CCN(CC(=O)N1CCN(C3CCCCC3)CC1)C2 [Compound 553, 2-[2-(4-cyclohexylpiperazin-1-yl)-2-oxoethyl]-6-(2-methoxyphenyl)-1,2,3,4-tetrahydroisoquinoline]
9 | ≥ 90 | COc1ccc(C(C)C)cc1-c1ccc2c(c1)CCN(CC(=O)N1CCN(C3CCC3)CC1)C2 [Compound 554, 2-[2-(4-cyclobutylpiperazin-1-yl)-2-oxoethyl]-6-(5-isopropyl-2-methoxyphenyl)-1,2,3,4-tetrahydroisoquinoline]
10 | ≥ 90 | COc1ccc(C(C)C)cc1-c1ccc2c(c1)CCN(CC(=O)N1CCN(C3CCCC3)CC1)C2 [Compound 555, 2-[2-(4-cyclopentylpiperazin-1-yl)-2-oxoethyl]-6-(5-isopropyl-2-methoxyphenyl)-1,2,3,4-tetrahydroisoquinoline]
11 | ≥ 90 | COc1ccc(C(C)C)cc1-c1ccc2c(c1)CCN(CC(=O)N1CCN(C3CCCCC3)CC1)C2 [Compound 556, 2-[2-(4-cyclohexylpiperazin-1-yl)-2-oxoethyl]-6-(5-isopropyl-2-methoxyphenyl)-1,2,3,4-tetrahydroisoquinoline]
12 | ≥ 90 | COc1ccc(Cl)cc1-c1ccc2c(c1)CCN(CC(=O)N1CCN(C3CCC3)CC1)C2 [Compound 557, 6-(5-chloro-2-methoxyphenyl)-2-[2-(4-cyclobutylpiperazin-1-yl)-2-oxoethyl]-1,2,3,4-tetrahydroisoquinoline]
13 | ≥ 90 | COc1ccc(Cl)cc1-c1ccc2c(c1)CCN(CC(=O)N1CCN(C3CCCCC3)CC1)C2 [Compound 558, 6-(5-chloro-2-methoxyphenyl)-2-[2-(4-cyclohexylpiperazin-1-yl)-2-oxoethyl]-1,2,3,4-tetrahydroisoquinoline]
14 | ≥ 90 | COc1ccc(OC)c(-c2ccc3c(c2)CCN(CC(=O)N2CCN(C4CCC4)CC2)C3)c1 [Compound 559, 2-[2-(4-cyclobutylpiperazin-1-yl)-2-oxoethyl]-6-(2,5-dimethoxyphenyl)-1,2,3,4-tetrahydroisoquinoline]
15 | ≥ 90 | COc1ccc(OC)c(-c2ccc3c(c2)CCN(CC(=O)N2CCN(C4CCCC4)CC2)C3)c1 [Compound 560, 2-[2-(4-cyclopentylpiperazin-1-yl)-2-oxoethyl]-6-(2,5-dimethoxyphenyl)-1,2,3,4-tetrahydroisoquinoline]
16 | ≥ 90 | COc1ccc(OC)c(-c2ccc3c(c2)CCN(CC(=O)N2CCN(C4CCCCC4)CC2)C3)c1 [Compound 561, 2-[2-(4-cyclohexylpiperazin-1-yl)-2-oxoethyl]-6-(2,5-dimethoxyphenyl)-1,2,3,4-tetrahydroisquinoline]
17 | ≥ 90 | COc1ccc(OC)c(-c2ccc3c(c2)CCN(CC(=O)N2CCN(C(C)C)CC2)C3)c1 [Compound 562, 6-(2,5-dimethoxyphenyl)-2-[2-(4-isopropylpiperazin-1-yl)-2-oxoethyl]-1,2,3,4-tetrahydroisoquinoline]
18 | ≥ 90 | COc1ccc(-c2ccc3c(c2)CCN(CC(=O)N2CCN(C4CCC4)CC2)C3)c(OC)c1 [Compound 563, 2-[2-(4-cyclobutylpiperazin-1-yl)-2-oxoethyl]-6-(2,4-dimethoxyphenyl)-1,2,3,4-tetrahydroisoquinoline]

The remaining lines, values behind:

Row | Structure (SMILES) | inhibition at 4 µM [%]
19 | COc1ccc2cc(-c3ccc4c(c3)CCN(CC(=O)N3CCN(C(C)C)CC3)C4)ccc2c1 [Compound 512, 2-[2-(4-isopropylpiperazin-1-yl)-2-oxoethyl]-6-(6-methoxy-2-naphthyl)-1,2,3,4-tetrahydroisoquinoline] | ≥ 90
20 | CC(C)Oc1cccc(-c2ccc3c(c2)CCN(CC(=O)N2CCN(C(C)C)CC2)C3)c1 [Compound 515, 6-(3-isopropoxyphenyl)-2-[2-(4-isopropylpiperazin-1-yl)-2-oxoethyl]-1,2,3,4-tetrahydroisoquinoline] | ≥ 90
21 | COc1cc(-c2ccc3c(c2)CCN(CC(=O)N2CCN(C4CCCCC4)CC2)C3)cc(OC)c1OC [Compound 518, 2-[2-(4-cyclohexylpiperazin-1-yl)-2-oxoethyl]-6-(3,4,5-trimethoxyphenyl)-1,2,3,4-tetrahydroisoquinoline] | ≥ 90
22 | COc1cc(-c2ccc3c(c2)CCN(CC(=O)N2CCN(C(C)C)CC2)C3)cc(OC)c1OC [Compound 519, 2-[2-(4-isopropylpiperazin-1-yl)-2-oxoethyl]-6-(3,4,5-trimethoxyphenyl)-1,2,3,4-tetrahydroisoquinoline] | ≥ 90
23 | COc1ccc(-c2ccc3c(c2)CCN(CC(=O)N2CCN(C4CCCCC4)CC2)C3)cc1 [Compound 522] | ≥ 90
24 | COc1ccc(-c2ccc3c(c2)CCN(CC(=O)N2CCN(C(C)C)CC2)C3)cc1 [Compound 523, 2-[2-(4-isopropylpiperazin-1-yl)-2-oxoethyl]-6-(4-methoxyphenyl)-1,2,3,4-tetrahydroisoquinoline] | ≥ 90
25 | CCOc1ccc(-c2ccc3c(c2)CCN(CC(=O)N2CCN(C4CCCCC4)CC2)C3)cc1 [Compound 530, 2-[2-(4-cyclohexylpiperazin-1-yl)-2-oxoethyl]-6-(4-ethoxyphenyl)-1,2,3,4-tetrahydroisoquinoline] | ≥ 90
26 | CCOc1ccc(-c2ccc3c(c2)CCN(CC(=O)N2CCN(C(C)C)CC2)C3)cc1 [Compound 531, 6-(4-ethoxyphenyl)-2-[2-(4-isopropylpiperazin-1-yl)-2-oxoethyl]-1,2,3,4-tetrahydroisoquinoline] | ≥ 90
27 | CN(C)c1ccc(-c2ccc3c(c2)CCN(CC(=O)N2CCN(C4CCCCC4)CC2)C3)cc1 [Compound 534, 4-{2-[2-(4-cyclohexylpiperazin-1-yl)-2-oxoethyl]-1,2,3,4-tetrahydroisoquinolin-6-yl}-N,N-dimethylaniline] | ≥ 90
28 | CC(C)N1CCN(C(=O)CN2CCc3cc(-c4ccc(N(C)C)cc4)ccc3C2)CC1 [Compound 535, 4-{2-[2-(4-isopropylpiperazin-1-yl)-2-oxoethyl]-1,2,3,4-tetrahydroisoquinolin-6-yl}-N,N-dimethylaniline] | ≥ 90
29 | CN(C)c1cccc(-c2ccc3c(c2)CCN(CC(=O)N2CCN(C4CCCC4)CC2)C3)c1 [Compound 537, 3-{2-[2-(4-cyclopentylpiperazin-1-yl)-2-oxoethyl]-1,2,3,4-tetrahydroisoquinolin-6-yl}-N,N-dimethylaniline] | ≥ 90
30 | CN(C)c1cccc(-c2ccc3c(c2)CCN(CC(=O)N2CCN(C4CCCCC4)CC2)C3)c1 [Compound 538, 3-{2-[2-(4-cyclohexylpiperazin-1-yl)-2-oxoethyl]-1,2,3,4-tetrahydroisoquinolin-6-yl}-N,N-dimethylaniline] | ≥ 90
31 | CC(C)N1CCN(C(=O)CN2CCc3cc(-c4cccc(N(C)C)c4)ccc3C2)CC1 [Compound 539, 3-{2-[2-(4-isopropylpiperazin-1-yl)-2-oxoethyl]-1,2,3,4-tetrahydroisoquinolin-6-yl}-N,N-dimethylaniline] | ≥ 90
32 | COc1ccc(-c2ccc3c(c2)CCN(CC(=O)N2CCN(C(C)C)CC2)C3)cc1C [Compound 543, 2-[2-(4-isopropylpiperazin-1-yl)-2-oxoethyl]-6-(4-methoxy-3-methylphenyl)-1,2,3,4-tetrahydroisoquinoline] | ≥ 90
33 | CCCOc1ccc(-c2ccc3c(c2)CCN(CC(=O)N2CCN(C4CCCCC4)CC2)C3)cc1 [Compound 546, 2-[2-(4-cyclohexylpiperazin-1-yl)-2-oxoethyl]-6-(4-propoxyphenyl)-1,2,3,4-tetrahydroisoquinoline] | ≥ 90
34 | CCCOc1ccc(-c2ccc3c(c2)CCN(CC(=O)N2CCN(C(C)C)CC2)C3)cc1 [Compound 547, 2-[2-(4-isopropylpiperazin-1-yl)-2-oxoethyl]-6-(4-propoxyphenyl)-1,2,3,4-tetrahydroisoquinoline] | ≥ 90
